Assay results reported in patent US8377974B2 (Millennium Pharmaceuticals, Inc., priority 2004, dated 2013).

target: T1, human plasma protein factor Xa (Homo sapiens, UniProt P00742); experiment: Factor Xa IC50 determination: cleavage of paranitroanilide substrate S-2765 in 96-well plates; assay type: biochemical; details: fXa 1 nM, S-2765 100 μM, Tris buffered saline pH 7.4, room temperature
T1 construct: measure proteolytic activity of the enzyme (factor Xa); purchased Haematologic Technologies (Essex Junction, Vt.); host or cells: human plasma
T1 sequence (P00742 235-488 limits assumed): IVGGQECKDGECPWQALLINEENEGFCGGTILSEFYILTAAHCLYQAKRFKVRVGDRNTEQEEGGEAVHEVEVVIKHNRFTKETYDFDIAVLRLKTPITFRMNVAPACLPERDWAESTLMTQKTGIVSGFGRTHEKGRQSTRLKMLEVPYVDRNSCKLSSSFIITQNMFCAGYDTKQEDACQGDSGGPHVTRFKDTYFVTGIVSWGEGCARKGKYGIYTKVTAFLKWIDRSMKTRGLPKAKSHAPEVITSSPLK
T1 sequence (P00742 41-179 partner limits assumed): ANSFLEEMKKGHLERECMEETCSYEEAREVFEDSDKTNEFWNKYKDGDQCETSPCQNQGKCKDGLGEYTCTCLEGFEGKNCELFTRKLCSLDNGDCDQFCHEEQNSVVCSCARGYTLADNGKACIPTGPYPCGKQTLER
Procedure, shortened: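 Initial rates of S-2765 (100 μM final) cleavage, read at 405 nm for 2 min, fitted with a four-parameter equation to give IC50. Enzyme: 1 nM human plasma fXa, 5 min room-temperature preincubation with inhibitor (0.01 nM–10 μM) in 20 mM Tris, 150 mM NaCl, 5 mM CaCl2, 0.1% BSA, 5% DMSO, pH 7.4; duplicates.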

IC50 [nM]	SMILES
≥ 500	O=C(NCc1cc(-c2ccc(-c3ccccn3)cc2)no1)c1ccc(Cl)s1 [Example 220, 5-Chloro-thiophene-2-carboxylic acid [3-(4-pyridin-2-yl-phenyl)-isoxazol-5-ylmethyl]-amide]
≥ 500	O=C(NCC1CC(c2ccc(NCc3ccccc3)cc2)=NO1)c1ccc(Cl)s1 (stereo not drawn) [Example 221, 5-Chloro-thiophene-2-carboxylic acid [3-(4-benzylamino-phenyl)-4,5-dihydro-isoxazol-5-ylmethyl]-amide]
≥ 500	O=C(NCC1CC(c2ccc(Nc3ccccc3)cc2)=NO1)c1ccc(Cl)s1 (stereo not drawn) [Example 222, 5-Chloro-thiophene-2-carboxylic acid [3-(4-phenylamino-phenyl)-4,5-dihydro-isoxazol-5-ylmethyl]-amide]
≥ 500	O=C(NCC1CC(c2ccc(Nc3ccc(F)cc3)cc2)=NO1)c1ccc(Cl)s1 (stereo not drawn) [Example 223, 5-Chloro-thiophene-2-carboxylic acid {3-[4-(4-fluoro-phenylamino)-phenyl]-4,5-dihydro-isoxazol-5-ylmethyl}-amide]
≥ 500	O=C(NCC1CC(c2ccc(Nc3ccccn3)cc2)=NO1)c1ccc(Cl)s1 (stereo not drawn) [Example 224, 5-Chloro-thiophene-2-carboxylic acid {3-[4-(pyridin-2-ylamino)-phenyl]-4,5-dihydro-isoxazol-5-ylmethyl}-amide]
≤ 100	O=C(NCC1CC(c2ccc(Nc3cccnc3)cc2)=NO1)c1ccc(Cl)s1 (stereo not drawn) [Example 225, 5-Chloro-thiophene-2-carboxylic acid {3-[4-(pyridin-3-ylamino)-phenyl]-4,5-dihydro-isoxazol-5-ylmethyl}-amide]
≤ 100	O=C(NCC1CC(c2ccc(Nc3ccncc3)cc2)=NO1)c1ccc(Cl)s1 (stereo not drawn) [Example 226, 5-Chloro-thiophene-2-carboxylic acid {3-[4-(pyridin-4-ylamino)-phenyl]-4,5-dihydro-isoxazol-5-ylmethyl}-amide]
≤ 100	CN(c1ccncc1)c1ccc(C2=NOC(CNC(=O)c3ccc(Cl)s3)C2)cc1 (stereo not drawn) [Example 227, 5-Chloro-thiophene-2-carboxylic acid {3-[4-(methyl-pyridin-4-yl-amino)-phenyl]-4,5-dihydro-isoxazol-5-ylmethyl}-amide]
≥ 500	Cc1cc(Nc2ccc(C3=NOC(CNC(=O)c4ccc(Cl)s4)C3)cc2)ccn1 (stereo not drawn) [Example 228, 5-Chloro-thiophene-2-carboxylic acid {3-[4-(2-methyl-pyridin-4-ylamino)-phenyl]-4,5-dihydro-isoxazol-5-ylmethyl}-amide]
100 to 500	O=C(NCC1CC(c2ccc(Nc3ccnc(Cl)c3)cc2)=NO1)c1ccc(Cl)s1 (stereo not drawn) [Example 229, 5-Chloro-thiophene-2-carboxylic acid {3-[4-(2-chloro-pyridin-4-ylamino)-phenyl]-4,5-dihydro-isoxazol-5-ylmethyl}-amide]
100 to 500	O=C(NCC1CC(c2ccc(Nc3ccncn3)cc2)=NO1)c1ccc(Cl)s1 (stereo not drawn) [Example 230, 5-Chloro-thiophene-2-carboxylic acid {3-[4-(pyrimidin-4-ylamino)-phenyl]-4,5-dihydro-isoxazol-5-ylmethyl}-amide]
≥ 500	CN(c1ccc(C2=NOC(CNC(=O)c3ccc(Cl)s3)C2)cc1)c1ccnc(N)n1 (stereo not drawn) [Example 231, 5-Chloro-thiophene-2-carboxylic acid (3-{4-[(2-amino-pyrimidin-4-yl)-methyl-amino]-phenyl}-4,5-dihydro-isoxazol-5-ylmethyl)-amide]
≥ 500	CCn1nccc1Nc1ccc(C2=NOC(CNC(=O)c3ccc(Cl)s3)C2)cc1 (stereo not drawn) [Example 232, 5-Chloro-thiophene-2-carboxylic acid {3-[4-(2-ethyl-2H-pyrazol-3-ylamino)-phenyl]-4,5-dihydro-isoxazol-5-ylmethyl}-amide]
100 to 500	Cn1ccc(Nc2ccc(C3=NOC(CNC(=O)c4ccc(Cl)s4)C3)cc2)n1 (stereo not drawn) [Example 233, 5-Chloro-thiophene-2-carboxylic acid {3-[4-(1-methyl-1H-pyrazol-3-ylamino)-phenyl]-4,5-dihydro-isoxazol-5-ylmethyl}-amide]
≥ 500	O=C(NCC1CC(c2ccc(N3CCOCC3)cc2)=NO1)c1ccc(Cl)s1 (stereo not drawn) [Example 234, 5-Chloro-thiophene-2-carboxylic acid [3-(4-morpholin-4-yl-phenyl)-4,5-dihydro-isoxazol-5-ylmethyl]-amide]
100 to 500	CN1CCN(c2ccc(C3=NOC(CNC(=O)c4ccc(Cl)s4)C3)cc2)CC1 (stereo not drawn) [Example 235, 5-Chloro-thiophene-2-carboxylic acid {3-[4-(4-methyl-piperazin-1-yl)-phenyl]-4,5-dihydro-isoxazol-5-ylmethyl}-amide]
≥ 500	COC[C@H]1CCCN1c1ccc(C2=NOC(CNC(=O)c3ccc(Cl)s3)C2)cc1 (stereo partly drawn) [Example 236, 5-Chloro-thiophene-2-carboxylic acid {3-[4-(2-methoxymethyl-pyrrolidin-1-yl)-phenyl]-4,5-dihydro-isoxazol-5-ylmethyl}-amide]

IC50 [nM]	SMILES
100 to 500	CN1CCC(Nc2ccc(C3=NOC(CNC(=O)c4ccc(Cl)s4)C3)cc2)CC1 (stereo not drawn) [Example 237, 5-Chloro-thiophene-2-carboxylic acid {3-[4-(1-methyl-piperidin-4-ylamino)-phenyl]-4,5-dihydro-isoxazol-5-ylmethyl}-amide]
100 to 500	CN(C)CCN(C)c1ccc(C2=NOC(CNC(=O)c3ccc(Cl)s3)C2)cc1 (stereo not drawn) [Example 238, 5-Chloro-thiophene-2-carboxylic acid (3-{4-[(2-dimethylamino-ethyl)-methyl-amino]-phenyl}-4,5-dihydro-isoxazol-5-ylmethyl)-amide]
≤ 100	CN(C)CCCN(C)c1ccc(C2=NOC(CNC(=O)c3ccc(Cl)s3)C2)cc1 (stereo not drawn) [Example 239, 5-Chloro-thiophene-2-carboxylic acid (3-{4-[(3-dimethylamino-propyl)-methyl-amino]-phenyl}-4,5-dihydro-isoxazol-5-ylmethyl)-amide]
≤ 100	O=C(NCC1CC(c2ccc(N3CCCC3=O)cc2)=NO1)c1ccc(Cl)s1 (stereo not drawn) [Example 240, 5-Chloro-thiophene-2-carboxylic acid {3-[4-(2-oxo-pyrrolidin-1-yl)-phenyl]-4,5-dihydro-isoxazol-5-ylmethyl}-amide]
100 to 500	O=C(NCC1CC(c2ccc(N3CCCCC3=O)cc2)=NO1)c1ccc(Cl)s1 (stereo not drawn) [Example 241, 5-Chloro-thiophene-2-carboxylic acid {3-[4-(2-oxo-piperidin-1-yl)-phenyl]-4,5-dihydro-isoxazol-5-ylmethyl}-amide]
≤ 100	O=C(NCC1CC(c2ccc(N3CCN(C(=O)OCc4ccccc4)CC3=O)cc2)=NO1)c1ccc(Cl)s1 (stereo not drawn) [Example 242, 4-[4-(5-{[(5-Chloro-thiophene-2-carbonyl)-amino]-methyl}-4,5-dihydro-isoxazol-3-yl)-phenyl]-3-oxo-piperazine-1-carboxylic acid benzyl ester]
≤ 100	O=C(NCC1CC(c2ccc(N3CCOCC3=O)cc2)=NO1)c1ccc(Cl)s1 (stereo not drawn) [Example 243, 5-Chloro-thiophene-2-carboxylic acid {3-[4-(3-oxo-morpholin-4-yl)-phenyl]-4,5-dihydro-isoxazol-5-ylmethyl}-amide]
100 to 500	O=C(NCC1CC(c2ccc(N3CCSCC3=O)cc2)=NO1)c1ccc(Cl)s1 (stereo not drawn) [Example 244, 5-Chloro-thiophene-2-carboxylic acid {3-[4-(3-oxo-thiomorpholin-4-yl)-phenyl]-4,5-dihydro-isoxazol-5-ylmethyl}-amide]
≤ 100	CN1CCN(c2ccc(C3=NOC(CNC(=O)c4ccc(Cl)s4)C3)cc2)C1=O (stereo not drawn) [Example 245, 5-Chloro-thiophene-2-carboxylic acid {3-[4-(3-methyl-2-oxo-imidazolidin-1-yl)-phenyl]-4,5-dihydro-isoxazol-5-ylmethyl}-amide]
≤ 100	O=C(NCC1CC(c2ccc(N3CCOCCC3=O)cc2)=NO1)c1ccc(Cl)s1 (stereo not drawn) [Example 246, 5-Chloro-thiophene-2-carboxylic acid {3-[4-(5-oxo-[1,4]oxazepan-4-yl)-phenyl]-4,5-dihydro-isoxazol-5-ylmethyl}-amide]
≤ 100	O=C(NCC1CC(c2ccc(Nc3ccncc3)cc2F)=NO1)c1ccc(Cl)s1 (stereo not drawn) [Example 247, 5-Chloro-thiophene-2-carboxylic acid {3-[2-fluoro-4-(pyridin-4-ylamino)-phenyl]-4,5-dihydro-isoxazol-5-ylmethyl}-amide]
≤ 100	CN1CCCN(c2ccc(C3=NOC(CNC(=O)c4ccc(Cl)s4)C3)c(F)c2)CC1 (stereo not drawn) [Example 248, 5-Chloro-thiophene-2-carboxylic acid {3-[2-fluoro-4-(4-methyl-[1,4]diazepan-1-yl)-phenyl]-4,5-dihydro-isoxazol-5-ylmethyl}-amide]
≥ 500	O=C(NCC1CC(c2ccc(N3CCOCCC3=O)cc2F)=NO1)c1ccc(Cl)s1 (stereo not drawn) [Example 249, 5-Chloro-thiophene-2-carboxylic acid {3-[2-fluoro-4-(5-oxo-[1,4]oxazepan-4-yl)-phenyl]-4,5-dihydro-isoxazol-5-ylmethyl}-amide]
≥ 500	O=C(NCc1cc(-c2ccc(Nc3ccccc3)cc2)no1)c1ccc(Cl)s1 [Example 250, 5-Chloro-thiophene-2-carboxylic acid [3-(4-phenylamino-phenyl)-isoxazol-5-ylmethyl]-amide]
≥ 500	COc1ccc(Nc2ccc(-c3cc(CNC(=O)c4ccc(Cl)s4)on3)cc2)cc1 [Example 251, 5-Chloro-thiophene-2-carboxylic acid {3-[4-(4-methoxy-phenylamino)-phenyl]-isoxazol-5-ylmethyl}-amide]
≥ 500	O=C(NCc1cc(-c2ccc(Nc3ccccn3)cc2)no1)c1ccc(Cl)s1 [Example 252, 5-Chloro-thiophene-2-carboxylic acid {3-[4-(pyridin-2-ylamino)-phenyl]-isoxazol-5-ylmethyl}-amide]
